The record followed here is patent publication US10322118B2, “Compounds and methods for inhibiting Cif virulence factor” (priority 2012, dated 2019).

The target in assay [1] is T1, Cif (Pseudomonas aeruginosa (strain UCBPP-PA14), UniProt A0A0H2ZD27). Kind of assay: Fluorescent-based Cif inhibitory assay (CMNGC).
Description: Cyano (6-methoxynaphthalen-2-yl) methyl glycidyl carbonate (CMNGC) was used as a fluorescent reporter substrate.
Reported IC50 values are the average of triplicates with at least two data points above and at least two below the IC50.
Assay [2] concerns the target T1, Cif. The assay is described as follows: Screen of soluble epoxide hydrolase inhibitors for Cif inhibition. The assay is classed as biochemical.
Protocol: To identify additional inhibitors of the Cif enzyme, further screening assays were conducted.
For assay [3], the target named is T1, Cif. Kind of assay: Radioactivity epoxide hydrolase assay with tritium-labeled cis-stilbene oxide (CSO). The conditions noted are these: for Inhibition (%): radioactivity assay, CSO substrate, initial screen and retest (Table 8). The assay is classed as biochemical. Further details: concentration or dose not given beside the values.
Assay [4] deals with T1, Cif. Kind of assay: Primary high throughput screen with fluorogenic substrate CMNGC.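 As to all read-outs here: fluorescence of 200 µL reactions in 96-well plates read on a plate reader, inhibitor at tenfold molar excess over Cif enzyme.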 The assay is classed as biochemical. The conditions noted are these: for inhibition at 10 µM: primary screen, test compounds at 10 μM, 1 μM Cif, 25 μM CMNGC, 60 minutes.
Protocol: All high throughput screening assays were performed using 96-well plates, a 200 μL reaction volume, and a fluorescent plate reader. […] The fluorescent signal was measured after allowing the enzyme reaction to proceed for 60 minutes.
A library of 1600 FDA-approved compounds was screened for Cif inhibitory activity.
The screen was performed with only a 10-fold stoichiometric excess of inhibitor over Cif enzyme.
Assay [5] deals with T1, Cif. The assay is described as follows: Secondary screen (sextuplicate) with fluorogenic substrate CMNGC.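 Also: purified enzyme assay in 96-well plates, 200 µL volume, fluorescence recorded each minute across a 60 min reaction.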 The assay is classed as biochemical.
Protocol: All high throughput screening assays were performed using 96-well plates, a 200 μL reaction volume, and a fluorescent plate reader. […] The fluorescent signal was measured after allowing the enzyme reaction to proceed for 60 minutes. The secondary screen was performed using the same conditions as the primary screen, except that fluorescent readings were taken every minute for the 60-minute reaction.
Subsequently, the filtered primary hits were retested to validate the observed inhibitory effect.
Where [6] appears, read: Table 17 (R6-R9 series), CMNGC, average of triplicates.
[7] abbreviates: Table 18 (biphenyl R series), CMNGC, average of triplicates.
The mark [8] stands for this setting: read-out: % Inhibition, Mean ± SD.
The mark [9] stands for this setting: read-out: % Inhibition, plate 1.
The mark [10] stands for this setting: read-out: % Inhibition, plate 2.
Setting [11] is: read-out: % Inhibition, plate 3.
[12] abbreviates: read-out: % Inhibition, plate 4.
Where [13] appears, read: read-out: % Inhibition, plate 5.
The mark [14] stands for this setting: read-out: % Inhibition, plate 6.

Values joined by “and” are separate entries in the source; they are usually repeats but may differ in a detail not shown here. Equal entries are not always repeated. Structures can show the parent of a compound that is named as a salt. Where two headings read alike, the source gives them in different places. Where only a bound is given, the exact number is not on record here.

The term IC50 denotes the concentration needed to halve the response being measured. The term inhibition denotes the drop in the measured response relative to a control, in per cent.

T1 sequence (A0A0H2ZD27 25-319 limits assumed): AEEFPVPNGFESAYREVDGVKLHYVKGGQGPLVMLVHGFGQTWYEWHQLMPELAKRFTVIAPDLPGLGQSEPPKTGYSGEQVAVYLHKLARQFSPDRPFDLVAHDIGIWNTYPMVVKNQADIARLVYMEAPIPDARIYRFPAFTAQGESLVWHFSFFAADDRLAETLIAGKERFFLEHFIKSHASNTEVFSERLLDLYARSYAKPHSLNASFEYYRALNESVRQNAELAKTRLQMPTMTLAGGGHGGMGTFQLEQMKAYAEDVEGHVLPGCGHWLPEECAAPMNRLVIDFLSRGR

For `CCOC(=O)CC(=O)Nc1cc(Br)c(Oc2cccc(C(C)C)c2)c(Br)c1` [Compound 1g], the “Cif inhibitory activity at 50 μM” value at Cif [1] is given as “fail to show inhibitory activity”. The IC50 against Cif [1] (setting [6]) is greater than 50 µM.
`CCOC(=O)CC(=O)Nc1cc(Cl)c(Oc2ccc(O)c(C(F)(F)F)c2)c(Cl)c1` [Compound 1n] returned an IC50 at Cif [1] (setting [6]) of 3 µM.
For the compound `CCC(=O)Nc1cc(Cl)c(Oc2ccc(O)c(-c3cccc(C#N)c3)c2)c(Cl)c1` [Compound 8f], half-maximal inhibition against Cif [1] (setting [7]) (IC50) was put at 0.58 µM.
Consider `CCOC(=O)CC(=O)Nc1cc(Cl)c(Oc2ccc(O)cc2Br)c(Cl)c1` [Compound 1q], for which, on Cif [1] (setting [6]), the IC50 is 29.3 µM.
With `Cc1cc(C)cc(NC(=O)NC(=O)c2c(F)cccc2F)c1` [Entry 3], on Cif [2], testing at 10 µM gave an inhibition of 39%.
For `CCOC(=O)CC(=O)Nc1cc(Cl)c(Oc2ccc(O)c(C(C)C)c2)c(Cl)c1` [Compound 1i], the midpoint of inhibition against Cif [1] (setting [6]), the IC50, lay at 3.8 µM.
Consider `O=C(Nc1ccc(Cl)cc1)Nc1ccc(Cl)cc1` [Entry 17], for which the “Inhibition (%)” value on Cif [3] was found to be 7%.
Regarding `CS(=O)(=O)N1CCC(NC(=O)Nc2ccc(OC(F)(F)F)cc2)CC1` [Entry 16], on Cif [3], the “Inhibition (%)” value is listed as 14%.
For `O=C(Nc1ccc(Cl)c(Cl)c1)Nc1ccc(Cl)c(Cl)c1` [Entry 18, N,N′-di-(3,4-dichlorophenyl) urea], the “% I, Positive Control Inhibitor, Average” value at Cif [4] (10 μM DCPU positive control, average of 20 plates) was 20%. Also, the “% I (percent of the total enzyme activity inhibited), Positive Control Inhibitor” value on Cif [4] (10 μM DCPU positive control, per plate of primary screen, listed as Positive Control Inhibitor) was 15.2% and 30.0%. For the same compound, the “Inhibition (%)” value at Cif [3] was 25.5%. In addition, the “inhibition of Cif enzyme activity” value at Cif [3] (secondary screen of radioactivity assay, P=0.004) is 25%.
On to `CCC(=O)Nc1cc(Cl)c(Oc2ccc(O)c(-c3cccc(C(N)=O)c3)c2)c(Cl)c1` [Compound 8d], for which, at Cif [1] (setting [7]), the IC50 came to 0.46 µM.
For `CCOC(=O)CC(=O)Nc1ccc(Oc2ccc(O)c(C(C)C)c2)c(Cl)c1` [Compound 1j], the IC50 at Cif [1] (setting [6]) was found to be 11.6 µM.
For `CCOC(=O)CC(=O)Nc1cc(Cl)c(Oc2ccc(O)cc2)c(Cl)c1` [Compound 1k], the “Cif inhibitory activity at 50 μM” value at Cif [1] is reported as “showed no inhibition”. For the same compound, on Cif [1] (setting [6]), the IC50 is greater than 50 µM.
`COC(=O)c1ccc(NC(=O)NC23CC4CC(CC(C4)C2)C3)cc1O` [Entry 13]: at Cif [3], the “Inhibition (%)” value is 18%.
Compound `CN(C(=O)NC(=O)c1c(F)cccc1F)c1ccc(Cl)cc1` [Entry 7] had an inhibition at 10 µM against Cif [2] of 40%.
As to `CCC(=O)Nc1cc(Cl)c(Oc2ccc(O)c(-c3ccc(C(C)=O)cc3)c2)c(Cl)c1` [Compound 8k], the IC50 on Cif [1] (setting [7]) was found to be 0.35 µM.
The same measure, in the same setting: then `CCC(=O)Nc1cc(Cl)c(Oc2ccc(O)c(-c3ccc(C(=O)NC)cc3)c2)c(Cl)c1` [Compound 8g], with 1.7 µM.
Take `Cc1ccc(-c2cc(C(F)(F)F)nn2-c2ccc(S(N)(=O)=O)cc2)cc1` [Entry 9]: 10 µM produced 38% inhibition against Cif [2].
Take `CCC(=O)Nc1cc(Cl)c(Oc2ccc(O)c(-c3ccc(C(=O)O)cc3)c2)c(Cl)c1` [Compound 8b]: half-maximal inhibition on Cif [1] (setting [7]) (IC50) was put at 10.5 µM.
With `CC(=O)N1CCC(NC(=O)NC2CCCCCC2)CC1` [Entry 14], on Cif [3], the “Inhibition (%)” value stood at 6%.
At Cif [1] (setting [7]), `CCC(=O)Nc1cc(Cl)c(Oc2ccc(O)c(-c3ccc(NC(N)=O)cc3)c2)c(Cl)c1` [Compound 8i] showed an IC50 of 0.29 µM.
In turn, `NC(Cc1ccc(Oc2ccc(O)c(I)c2)c(I)c1)C(=O)O` (stereo not shown) [Entry 4] came in with an IC50 on Cif [1] of 80 ± 10 µM.
On to `O=C(NC(=O)c1c(F)cccc1F)Nc1cc(Cl)cc(Cl)c1` [Entry 4], for which, on Cif [2], 10 µM produced 50% inhibition.
For the compound `CCOC(=O)CC(=O)Nc1cc(Cl)c(Oc2ccc(O)c(I)c2)c(Cl)c1` [Compound 1m], the IC50 at Cif [1] (setting [6]) is 3.8 µM.
At Cif [2], `CCC(=O)N1CCC(NC(=O)Nc2ccc([N+](=O)[O-])cc2)CC1` [Entry 10] registered an inhibition at 10 µM of 44%.
`CCC(=O)Nc1cc(Cl)c(Oc2ccc(O)c(-c3ccc(S(N)(=O)=O)cc3)c2)c(Cl)c1` [Compound 8l]: the IC50 on Cif [1] (setting [7]) was determined as 2 µM.
At Cif [2], `CCC(=O)Oc1ccc(NC(=O)NC23CC4CC(CC(C4)C2)C3)cc1` [Entry 1] yielded an inhibition at 10 µM of 41%.
With `C=C(NC(=O)C(=C)NC(=O)c1csc(C2=N[C@@H]3c4csc(n4)[C@H]4NC(=O)c5csc(n5)[C@H]([C@](C)(O)[C@@H](C)O)NC(=O)[C@H]5CSC(=N5)/C(=C/C)NC(=O)[C@H]([C@@H](C)O)NC(=O)c5csc(n5)[C@]3(CC2)NC(=O)[C@H](C)NC(=O)C(=C)NC(=O)[C@H](C)NC(=O)[C@H]([C@@H](C)CC)N[C@@H]2C=Cc3c([C@H](C)O)cc(nc3[C@H]2O)C(=O)O[C@@H]4C)n1)C(N)=O` [Thiostrepton], the inhibition at 10 µM on Cif [5] (setting [8]) came out at 28 ± 12%; at Cif [5] (setting [9]), 14%; on Cif [5] (setting [10]), 15%; at Cif [5] (setting [11]), 25%; at Cif [5] (setting [12]) it was 27%; on Cif [5] (setting [13]), 43%. Moreover, the results for the inhibition at 10 µM at Cif [5] (setting [14]) and against Cif [4] were 42% and 46%, respectively.
Turning to `NCC(O)c1ccc(O)cc1` (stereo not shown) [Octopamine hydrochloride], the inhibition at 10 µM is 11 ± 6% on Cif [5] (setting [8]); 1% on Cif [5] (setting [9]); 6% on Cif [5] (setting [10]); 12% at Cif [5] (setting [11]); 9% on Cif [5] (setting [12]); 18% at Cif [5] (setting [13]). In addition, the inhibition at 10 µM on Cif [5] (setting [14]) amounted to 17%; against Cif [4], 42%.
`NC(Cc1cc(I)c(Oc2cc(I)c(O)c(I)c2)c(I)c1)C(=O)O` (stereo not shown) [Entry 6] yielded an IC50 on Cif [1] greater than 100 µM.
For `C[N+](C)(C)CC(=O)O` [Betaine hydrochloride], the inhibition at 10 µM on Cif [5] (setting [8]) stood at 13 ± 6%; at Cif [5] (setting [9]), 6%; on Cif [5] (setting [10]), 10%; on Cif [5] (setting [11]), 9%; on Cif [5] (setting [12]), 17%; on Cif [5] (setting [13]), 20%. Also, the inhibition at 10 µM was 18% on Cif [5] (setting [14]) and 33% against Cif [4].
`O=C(CCCCCCC(=O)Nc1ccccc1)NO` [Vorinostat]: the inhibition at 10 µM on Cif [5] (setting [8]) came to 13 ± 6%; at Cif [5] (setting [9]), 5%; on Cif [5] (setting [10]) it was 13%; on Cif [5] (setting [11]), 8%; on Cif [5] (setting [12]) it was 14%; on Cif [5] (setting [13]) it was 18%. In addition, the inhibition at 10 µM came out at 22% on Cif [5] (setting [14]) and 35% against Cif [4].
`C#Cc1cc(Oc2c(Cl)cc(NC(=O)CC(=O)OCC)cc2Cl)ccc1O` [Compound 1p] registered an IC50 against Cif [1] (setting [6]) of 2.9 µM.
With `CCOC(=O)CC(=O)Nc1cc(Br)c(Oc2ccc(OC)c(C(C)C)c2)c(Br)c1` [Compound 1h], the “Cif inhibitory activity at 50 μM” value at Cif [1] is “fail to show inhibitory activity”. The IC50 against Cif [1] (setting [6]) is greater than 50 µM.
`CCC(=O)Nc1cc(Cl)c(Oc2ccc(O)c(-c3ccc(C#N)cc3)c2)c(Cl)c1` [Compound 8e] had a half-inhibitory concentration (IC50) on Cif [1] (setting [7]) of 11.9 µM.
For the compound `CN1CCCC(n2nc(Cc3ccc(Cl)cc3)c3ccccc3c2=O)CC1` (stereo not shown) [Azelastine hydrochloride], the inhibition at 10 µM was determined as 34 ± 4% at Cif [5] (setting [8]); 30% on Cif [5] (setting [9]); 31% at Cif [5] (setting [10]); 33% at Cif [5] (setting [11]); 34% on Cif [5] (setting [12]); 42% on Cif [5] (setting [13]). Further, the inhibition at 10 µM on Cif [5] (setting [14]) amounted to 30%; on Cif [4], 48%.
For the compound `O=C(NC1CCC(Oc2ccc(C(=O)O)cc2)CC1)NC12CC3CC(CC(C3)C1)C2` (stereo not shown) [Entry 12], the “Inhibition (%)” value on Cif [3] was found to be 14%.
For the compound `O=C(Nc1ccc(OC(F)(F)F)cc1)NC1CCC(Oc2ccc(C(=O)O)cc2)CC1` (stereo not shown) [Entry 15], on Cif [3], the “Inhibition (%)” value is given as 17%.
For `CCOC(=O)CC(=O)Nc1cc(Cl)c(Oc2ccc(O)c(Br)c2)c(Cl)c1` [Compound 1l], at Cif [1] (setting [6]), the IC50 came to 4.9 µM.
